Assays:
Assay type in all cases: cell-based
[1] = test system: Pseudomonas aeruginosa PAM 1723 (a strain highly expressing MexAB-OprM drug efflux pump); test: Combined use of drug efflux pump inhibitor and disinfectant, broth dilution method; conditions: for enhancement of activity of the disinfectant on PAM 1723: combined use with 10 μg/ml of the compound of Example 26
Procedure: Effect of Combined Use of Drug Efflux Pump Inhibitor and Disinfectant
Effects of a combined use of a drug efflux pump inhibitor and alkyldiaminoethylglycine hydrochloride (AEG, trade name: Tego 51) or chlorhexidine gluconate (CHG, trade name: Hibiten) on Pseudomonas aeruginosa PAM 1723 (a strain highly expressing MexAB-OprM drug efflux pump) was determined by the broth dilution method. The compound of Example 26 was added at a final concentration of 10 μg/ml to Mueller-Hinton broth (MHB) containing a disinfectant at a concentration after 2-fold serial dilution. The amount of the test bacteria inoculated was 1×10^6 CFU/ml, and after standing cultivation at 37° C. for 18 hours, the culture was observed by visual inspection. The minimum concentration that gave no turbidity as in the control of MHB was determined as MIC.

[2] = test system: Pseudomonas aeruginosa PAM 1723 strain highly expressing the drug efflux pump; test: Effect of combined use with antimicrobial agent (levofloxacin, aztreonam) on multidrug resistant Pseudomonas aeruginosa; conditions: 18 hours, MHB; for MPC8 AZT: minimum concentration of test compound required to enhance antibacterial activity of aztreonam at 1/8 or less of MIC; for MPC4 LVFX: minimum concentration of test compound required to enhance antibacterial activity of levofloxacin applied at 1/4 of MIC; for MPC8 LVFX: minimum concentration of test compound required to enhance antibacterial activity of levofloxacin applied at 1/8 or less of MIC
Description: Effect of Combined Use with Antimicrobial Agent on Multidrug Resistant Pseudomonas aeruginosa
As multidrug resistant Pseudomonas aeruginosa, Pseudomonas aeruginosa PAM 1723 strain highly expressing the drug efflux pump was used. As antimicrobial drugs for the combinational uses, levofloxacin (LVFX) as a quinolone antibacterial agent and aztreonam (AZT) as a monobactam antibiotic were used. Each of the compounds shown in Table 1 with Example No., which falls within the compounds of the present invention, was subjected to the measurement of its minimum concentration (μg/ml) that was required to enhance the antibacterial activity of levofloxacin when the test compound was used in combination with levofloxacin applied at a concentration of 1/4, or 1/8 or less of the minimum inhibitory concentration against the PAM 1723 strain. […] Effects as combinational uses for 18 hours was indicated for each of the drugs. Effects were determined by visually observing the turbidity of the medium. The Müller-Hinton broth (MHB, Difco) was used as a medium, and the inoculum of the bacteria was 1×10^6 CFU/ml.

[3] = test system: Pseudomonas aeruginosa wild strain PAM 1020; test: Combined use of a pump inhibitor, levofloxacin (LVFX) and meropenem (MEPM) evaluated by the three-dimensional checker board method; conditions: for FIC index: PAM 1020
Procedure: (1) Effect of Combined Used of a Pump Inhibitor, Levofloxacin (LVFX) and Meropenem (MEPM) Evaluated by the Three-Dimensional Checker Board Method
The effect was measured by the three-dimensional checker board method by using Pseudomonas aeruginosa wild strain PAM 1020. The test strain was inoculated into Mueller-Hinton broth containing LVFX, MEPM (at 11 concentration levels and 0 μg/ml) and the compound of Example 26 (40-0.625 μg/ml and 0 μg/ml) at a concentration of 10^6 CFU/ml and cultured at 37° C. for 18 hours. Then, MIC was measured for sole and combined use. Measurement was performed by the checker board method and FIC index was calculated according to the following equation. FIC index=a/a0+b/b0+c/c0 wherein a0: MIC for Agent A used alone, a: MIC for Agent A when Agents A, B and C are used in combination, b0: MIC for Agent B used alone, b: MIC for Agent B when Agents A, B and C are used in combination, c0: MIC for Agent C used alone, c: MIC for Agent C when Agents A, B and C are used in combination.
It was determined that there was synergistic effect when FIC index was 0.75 or less, additive effect or weak synergistic effect when the index was more than 0.75 but not more than 1.125, no effect of combined use when the index was more than 1.125 but not more than 3.0, and antagonistic effect when the index was more than 3.0.

[4] = combined with compound of Example 26 at 10 μg/ml, PAM 1723, 37° C. 18 hours
[5] = compound of Example 26 at 10 μg/ml, PAM 1723
[6] = disinfectant alone, PAM 1723, 37° C. 18 hours

N=C(NCCCCCCNC(=N)NC(=N)Nc1ccc(Cl)cc1)NC(=N)Nc1ccc(Cl)cc1.O=C(O)[C@H](O)[C@@H](O)[C@H](O)[C@H](O)CO.O=C(O)[C@H](O)[C@@H](O)[C@H](O)[C@H](O)CO [CHG, chlorhexidine gluconate]
enhancement of activity of the disinfectant on PAM 1723 [1]: four times | MIC CHG Combined use [1, 4]: 4 µg/mL | CHG Ratio of MIC values for single use of the disinfectant and combined use with the compound of Example 26 [1, 5]: 4 | MIC CHG Single use [1, 6]: 16 µg/mL

CC(C)c1csc(CCc2ccn3c(=O)c(/C=C/C(=O)O)c(N4CCCC(O)C4)nc3c2)n1 (stereo not drawn) [Example 26]
MPC8 AZT [2]: 1 µg/mL | MPC4 LVFX [2]: 0.25 µg/mL | MPC8 LVFX [2]: 1 µg/mL | FIC index ([3]; LVFX + MEPM 0.016 μg/ml + compound of Example 26 0.625 μg/ml): 1.039 | FIC index ([3]; LVFX + MEPM 0.016 μg/ml + compound of Example 26 1.25 μg/ml): 1.047 | FIC index ([3]; LVFX + MEPM 0.016 μg/ml + compound of Example 26 2.5 μg/ml): 1.063 | FIC index ([3]; LVFX + MEPM 0.016 μg/ml + compound of Example 26 5 μg/ml): 0.594 | FIC index ([3]; LVFX + MEPM 0.016 μg/ml + compound of Example 26 10 μg/ml): 0.656 | FIC index ([3]; LVFX + MEPM 0.016 μg/ml + compound of Example 26 20 μg/ml): 0.781 | FIC index ([3]; LVFX + MEPM 0.016 μg/ml + compound of Example 26 40 μg/ml): 1.031 | FIC index ([3]; LVFX + MEPM 0.0313 μg/ml + compound of Example 26 0.625 μg/ml): 1.07 | FIC index ([3]; LVFX + MEPM 0.0313 μg/ml + compound of Example 26 1.25 μg/ml): 1.078 | FIC index ([3]; LVFX + MEPM 0.0313 μg/ml + compound of Example 26 2.5 μg/ml): 0.5938 | FIC index ([3]; LVFX + MEPM 0.0313 μg/ml + compound of Example 26 5 μg/ml): 0.625 | FIC index ([3]; LVFX + MEPM 0.0313 μg/ml + compound of Example 26 10 μg/ml): 0.6875 | FIC index ([3]; LVFX + MEPM 0.0313 μg/ml + compound of Example 26 20 μg/ml): 0.8125 | FIC index ([3]; LVFX + MEPM 0.0313 μg/ml + compound of Example 26 40 μg/ml): 1.0625 | FIC index ([3]; LVFX + MEPM 0.0625 μg/ml + compound of Example 26 0.625 μg/ml): 1.133 | FIC index ([3]; LVFX + MEPM 0.0625 μg/ml + compound of Example 26 1.25 μg/ml): 0.641 | FIC index ([3]; LVFX + MEPM 0.0625 μg/ml + compound of Example 26 2.5 μg/ml): 0.656 | FIC index ([3]; LVFX + MEPM 0.0625 μg/ml + compound of Example 26 5 μg/ml): 0.438 | FIC index ([3]; LVFX + MEPM 0.0625 μg/ml + compound of Example 26 10 μg/ml): 0.500 | FIC index ([3]; LVFX + MEPM 0.0625 μg/ml + compound of Example 26 20 μg/ml): 0.500 | FIC index ([3]; LVFX + MEPM 0.0625 μg/ml + compound of Example 26 40 μg/ml): 0.750 | FIC index ([3]; LVFX + MEPM 0.125 μg/ml + compound of Example 26 0.625 μg/ml): 0.781 | FIC index ([3]; LVFX + MEPM 0.125 μg/ml + compound of Example 26 1.25 μg/ml): 0.563 | FIC index ([3]; LVFX + MEPM 0.125 μg/ml + compound of Example 26 2.5 μg/ml): 0.500 | FIC index ([3]; LVFX + MEPM 0.125 μg/ml + compound of Example 26 5 μg/ml): 0.563 | FIC index ([3]; LVFX + MEPM 0.125 μg/ml + compound of Example 26 10 μg/ml): 0.766 | FIC index ([3]; LVFX + MEPM 0.25 μg/ml + compound of Example 26 0.625 μg/ml): 1.063 | MIC ([3]; Pseudomonas aeruginosa, agent used alone, PAM 1020 strain): ≥ 80 µg/mL

CC(C)c1csc(/C=C/c2ccn3c(=O)c(/C=C/c4nnn[nH]4)c(N4CCCC(O)C4)nc3c2)n1 (stereo not drawn) [Example 104, 2-(3-Hydroxypiperidino)-8-[(E)-2-(4-isopropyl-1,3-thiazol-2-yl)-1-ethenyl]-3-[(E)-2-(1H-1,2,3,4-tetrazol-5-yl)-1-ethenyl]-4H-pyrido[1,2-a]pyrimidin-4-one]
MPC8 AZT [2]: 0.5 µg/mL | MPC4 LVFX [2]: 0.24 µg/mL | MPC8 LVFX [2]: 1 µg/mL

CC(C)c1csc(/C=C/c2ccn3c(=O)c(/C=C/C(=O)O)c(OCC4CCOC4)nc3c2)n1 (stereo not drawn) [Example 117, (E)-3-{8-[(E)-2-(4-Isopropyl-1,3-thiazol-2-yl)-1-ethenyl]-4-oxo-2-(tetrahydro-3-furanylmethoxy)-4H-pyrido[1,2-a]pyrimidin-3-yl}-2-propenoic acid]
MPC8 AZT [2]: 4 µg/mL | MPC4 LVFX [2]: 1 µg/mL | MPC8 LVFX [2]: 4 µg/mL

CC(C)c1csc(CCc2ccn3c(=O)c(/C=C/C(=O)O)c(-c4ccncc4)nc3c2)n1 [Example 130]
MPC8 AZT [2]: 8 µg/mL | MPC4 LVFX [2]: 2 µg/mL | MPC8 LVFX [2]: 8 µg/mL

CC(C)c1csc(CCc2ccn3c(=O)c(/C=C(\F)C(=O)O)c(N4CCOCC4)nc3c2)n1 [Example 135, (Z)-2-Fluoro-3-{8-[2-(4-isopropyl-1,3-thiazol-2-yl)ethyl]-2-morpholino-4-oxo-4H-pyrido[1,2-a]pyrimidin-3-yl}-2-propenoic acid]
MPC8 AZT [2]: 8 µg/mL | MPC4 LVFX [2]: 4 µg/mL | MPC8 LVFX [2]: 16 µg/mL

CC(C)c1csc(CCc2ccn3c(=O)c(/C=C4/SC(=O)NC4=O)c(N4CCOCC4)nc3c2)n1 [Example 141, 5-(1-{8-[2-(4-Isopropyl-1,3-thiazol-2-yl)ethyl]-2-morpholino-4-oxo-4H-pyrido[1,2-a]pyrimidin-3-yl}methylidene)-1,3-thiazolidine-2,4-dione]
MPC8 AZT [2]: 2 µg/mL | MPC4 LVFX [2]: 0.25 µg/mL | MPC8 LVFX [2]: 16 µg/mL

CC(C)c1csc(CCc2ccn3c(=O)c(/C=C/C(=O)O)c(SCC(N)=O)nc3c2)n1 [Example 152, (E)-3-{2-Aminocarbonylmethylthio-8-[2-(4-isopropyl-1,3-thiazol-2-yl)-ethyl]-4-oxo-4H-pyrido[1,2-a]pyrimidin-3-yl}-2-propenoic acid]
MPC8 AZT [2]: 4 µg/mL | MPC4 LVFX [2]: 2 µg/mL | MPC8 LVFX [2]: 8 µg/mL

CCn1cc(-c2nn[nH]n2)c(=O)c2ccc(/C=C/c3nc(C(C)C)cs3)nc21 [Example 155, 1-Ethyl-7-[(E)-2-(4-isopropyl-1,3-thiazol-2-yl)-1-ethenyl]-3-(1H-1,2,3,4-tetrazol-5-yl)-1,4-dihydro[1,8]naphthylidin-4-one]
MPC8 AZT [2]: 2 µg/mL | MPC4 LVFX [2]: 0.25 µg/mL | MPC8 LVFX [2]: 2 µg/mL

alkyldiaminoethylglycine hydrochloride [AEG]
enhancement of activity of the disinfectant on PAM 1723 [1]: two times | MIC AEG Combined use [1, 4]: 32 µg/mL | AEG Ratio of MIC values for single use of the disinfectant and combined use with the compound of Example 26 [1, 5]: 2 | MIC AEG Single use [1, 6]: 64 µg/mL
